Data: US11970497B2, “Tricyclic AKR1C3 dependent KARS inhibitors” (Novartis AG, priority 2019, dated 2024)

Tests used:
[1] = test system: Hara (NRF2 pathway wild type cell line with low AKR1C3 expression); experiment: In vitro cell proliferation assay (CellTiter-Glo), Hara; format: cell-based; settings: 72 h; Hara cells, 3 days, CellTiter-Glo, top concentration 10 μM; read-out: HARA Qualified absolute AC50
Procedure, shortened: (§1)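 Cells seeded day 1 (H460 800/well, Hara 2000/well) in RPMI-1640 with 10% FBS; compounds added day 2 as 8-point 1:5 dilutions from 10 μM top. After 3 days at 37 °C, viability read by CellTiter-Glo luminescence, normalized to DMSO and MG132 (30 μM) controls to derive percentage activity and AC50.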

[2] = target: T1, Human KARS (Homo sapiens, UniProt Q15046); experiment: KARS AMP Transcreener FP assay; format: biochemical; settings: 50 nM human KARS, 20 μM ATP, 50 μM L-Lysine, 1 μM tRNA, 2 h at RT; read-out: Human KARS Transcreener AMP assay Qualified absolute AC50
T1 construct: Human KARS protein (residues 70-584) was expressed and purified; made in house
T1 sequence (Q15046 70-584): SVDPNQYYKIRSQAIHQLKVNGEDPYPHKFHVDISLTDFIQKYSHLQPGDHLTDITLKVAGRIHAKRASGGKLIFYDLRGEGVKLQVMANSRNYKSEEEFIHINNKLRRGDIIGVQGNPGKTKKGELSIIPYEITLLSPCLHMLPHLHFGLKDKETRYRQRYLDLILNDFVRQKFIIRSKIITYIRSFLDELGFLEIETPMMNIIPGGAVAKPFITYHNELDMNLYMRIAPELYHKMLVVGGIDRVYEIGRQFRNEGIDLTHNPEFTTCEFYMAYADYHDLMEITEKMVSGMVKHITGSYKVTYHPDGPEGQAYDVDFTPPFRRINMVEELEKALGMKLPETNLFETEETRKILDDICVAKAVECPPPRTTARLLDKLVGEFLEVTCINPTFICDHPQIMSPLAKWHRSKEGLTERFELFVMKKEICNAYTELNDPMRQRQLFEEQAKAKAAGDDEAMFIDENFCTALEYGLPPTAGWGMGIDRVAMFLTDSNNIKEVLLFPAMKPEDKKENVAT
Description: KARS AMP Transcreener FP Assay to Measure Inhibition of KARS Enzymatic Activity
Lysine-tRNA synthetase (KARS) is an enzyme that catalyzes the reaction of ATP, L-lysine, and tRNA(Lys) to form AMP, diphosphate, and L-lysyl-tRNA(Lys).
The Transceener® AMP/GMP (BellBrook Labs, Madison, WI, USA) is a far red, competitive fluorescence polarization (FP) immunoassay based on the detection of AMP, which is one of the products of aminoacylation of tRNA. In this assay, a fluorescently labeled AMP (AMP Alexa Fluor 633) is used as the tracer that can be recognized by a specific antibody. In the absence of AMP, all the tracer molecules are bound to the antibodies leading to large polarization. The AMP product generated by the enzyme reaction will compete with the tracer for binding to the antibody which leads to a decrease in the polarization. As such, the enzyme activity is inversely proportional to FP values.
Human KARS protein (residues 70-584) was expressed and purified using a similar protocol to what is described in literature (Crystal structure of tetrameric form of human lysyl-tRNA synthetase: Implications for multisynthetase complex formation Guo, M., Ignatov, M., Musier-Forsyth, K., Schimmel, P., Yang, X. L. (2008) Proc. Natl. Acad. Sci. Usa 105: 2331-2336).
The KARS enzyme assay was performed in a final volume of 10 μL per well of Corning Costar 384 well plate, flat bottom, black non-treated plate. The final assay concentration was 20 mM HEPES pH 7.5, 1 mM DTT, 50 nM human KARS, 20 μM ATP, 50 μM L-Lysine, 1 μM tRNA and 8 mM MgCl2. Compounds were serial diluted 1:3 in DMSO in a master plate to generate a 10 concentration points dose response with maximum concentration of 10 mM. 50 nL from compound master plate were spotted in each well of a 384 black plate (Corning 3573), and 5 μL of enzyme mixture containing 100 nM KARS diluted in assay buffer (20 mM HEPES pH 7.5 and 1 mM OTT) were added. The reaction was started by adding 5 μL of the substrate mixture containing 40 μM ATP (final 20 μM ATP), 100 μM L-Lysine (final 50 μM), 2 μM tRNA (final 1 μM), 16 mM MgCl2 (final 8 mM MgCl2) diluted in assay buffer (20 mM HEPES pH 7.5 and 1 mM OTT). The mixtures were mixed and incubated for 2 h at RT before the termination of the reaction.
Transcreener® stop and detection buffers were prepared (1× stop buffer [final: 0.5×], 2 nM Tracer [final: 1 nM] and 5 μg/ml anti-AMP antibody [final: 2.5 μg/ml] in deionized water) and 10 μL of the stop and detection mix were added to the reaction wells, mixed for a minute and centrifuged at 1000 rpm for 10 seconds. The plates were read after incubating at RT for 30-60 min using Infinite® M1000 with the following settings: Excitation wavelength: 635 nm; Emission wavelength: 680 nm. FP values of DMSO controls were used to normalize the data and calculate IC50s of compounds using the Helios Software suite.

[3] = test system: H460 (NRF2 pathway mutant cell line with high AKR1C3 expression); experiment: In vitro cell proliferation assay (CellTiter-Glo), H460; format: cell-based; settings: Homo sapiens, NCI-H460, 72 h; H460 cells, 3 days, CellTiter-Glo, top concentration 10 μM; read-out: H460 Qualified absolute AC50
Procedure, shortened: as §1

| Structure (SMILES) | AC50 [2] | AC50 [1] | AC50 [3] |
| --- | --- | --- | --- |
| CN1c2ccc(F)cc2C(O)CC12CCN(C(=O)NCc1cc(NCCO)c(F)cc1F)CC2 (racemic) [Example 156, N-(2,4-difluoro-5-((2-hydroxyethyl)amino)benzyl)-6′-fluoro-4′-hydroxy-1′-methyl-3′,4′-dihydro-1′H-spiro[piperidine-4,2′-quinoline]-1-carboxamide] | 23.5 nM | 80 nM | 49 nM |
| NC(=O)c1cc(CNC(=O)N2CCC3(CC2)CC(O)c2cc(F)cc(F)c2N3)ccc1F (racemic) [Example 157, N-(3-carbamoyl-4-fluorobenzyl)-6′,8′-difluoro-4′-hydroxy-3′,4′-dihydro-1′H-spiro[piperidine-4,2′-quinoline]-1-carboxamide] | 34.1 nM | 2 nM | 0.1 nM |
| CN1c2ccc(F)cc2C(O)CC12CCN(C(=O)NCc1ccc(F)c(CC(N)=O)c1)CC2 (racemic) [Example 161, N-(3-(2-amino-2-oxoethyl)-4-fluorobenzyl)-6′-fluoro-4′-hydroxy-1′-methyl-3′,4′-dihydro-1′H-spiro[piperidine-4,2′-quinoline]-1-carboxamide] | 71.8 nM | 91 nM | 278 nM |
| O=C(NC1CC(O)C1)c1cc(CNC(=O)N2CCC3(CC2)CC(O)c2cc(F)ccc2N3)ccc1F (racemic) [Example 162, 6′-fluoro-N-(4-fluoro-3-((3-hydroxycyclobutyl)carbamoyl)benzyl)-4′-hydroxy-3′,4′-dihydro-1′H-spiro[piperidine-4,2′-quinoline]-1-carboxamide] | 73.7 nM | – | 47 nM |
| CN1c2ccc(F)cc2C(O)CC12CCN(C(=O)NCc1ccc(F)c(OCCO)c1)CC2 (racemic) [Example 163] | 98.4 nM | 11 nM | 76 nM |
| CS(=O)(=O)Nc1cc(CNC(=O)N2CCC3(CC2)CC(O)c2cc(F)ccc2N3)ccc1F (racemic) [Example 164, 6′-fluoro-N-(4-fluoro-3-(methylsulfonamido)benzyl)-4′-hydroxy-3′,4′-dihydro-1′H-spiro[piperidine-4,2′-quinoline]-1-carboxamide] | 106 nM | 234 nM | 253 nM |
| COCCNc1cc(F)ccc1CNC(=O)N1CCC2(CC1)CC(O)c1cc(F)ccc1N2C (racemic) [Example 166, 6′-fluoro-N-(4-fluoro-2-((2-methoxyethyl)amino)benzyl)-4′-hydroxy-1′-methyl-3′,4′-dihydro-1′H-spiro[piperidine-4,2′-quinoline]-1-carboxamide] | 243 nM | 22 nM | 3 nM |
| CN1c2ccc(F)cc2C(O)CC12CCN(C(=O)NCc1ccc(F)c([C@@H](N)C(F)(F)F)c1)CC2 (mixture of isomers) [Example 167, N-(3-((R)-1-amino-2,2,2-trifluoroethyl)-4-fluorobenzyl)-6′-fluoro-4′-hydroxy-1′-methyl-3′,4′-dihydro-1′H-spiro[piperidine-4,2′-quinoline]-1-carboxamide] | 918 nM | 100 nM | 345 nM |
| CN1c2ccc(F)cc2C(=O)CC12CCN(C(=O)NCc1ccc(F)cc1)CC2 [Example 9, 6′-fluoro-N-(4-fluorobenzyl)-1′-methyl-4′-oxo-3′,4′-dihydro-1′H-spiro[piperidine-4,2′-quinoline]-1-carboxamide] | > 10000 nM | > 10000 nM | 17 nM |
| O=C1CC2(CCN(C(=O)NCc3ccc(OC(F)F)cc3)CC2)Nc2c(F)cc(F)cc21 [Example 150, N-(4-(difluoromethoxy)benzyl)-6′,8′-difluoro-4′-oxo-3′,4′-dihydro-1′H-spiro[piperidine-4,2′-quinoline]-1-carboxamide] | – | 2620 nM | 6270 nM |
| CN1c2ccc(F)cc2C(O)CC12CCN(C(=O)NCc1ccc(F)c(NCCO)c1)CC2 (stereo not shown) [Example 165, 6′-fluoro-N-(4-fluoro-3-((2-hydroxyethyl)amino)benzyl)-4′-hydroxy-1′-methyl-3′,4′-dihydro-1′H-spiro[piperidine-4,2′-quinoline]-1-carboxamide] | 199 nM | 23 nM | 49 nM |

Further lines, with some results ahead:

| AC50 [2] | Structure (SMILES) | AC50 [1] | AC50 [3] |
| --- | --- | --- | --- |
| 42.1 nM | Nc1cc(CNC(=O)N2CCC3(CC2)CC(O)c2cc(F)ccc2N3)ccc1F (racemic) [Example 158, N-(3-amino-4-fluorobenzyl)-6′-fluoro-4′-hydroxy-3′,4′-dihydro-1′H-spiro[piperidine-4,2′-quinoline]-1-carboxamide] | 6 nM | 33 nM |
| 45.9 nM | O=C(NCc1ccc(F)c(CO)c1)N1CCC2(CC1)CC(O)c1cc(F)ccc1N2 (racemic) [Example 159, 6′-fluoro-N-(4-fluoro-3-(hydroxymethyl)benzyl)-4′-hydroxy-3′,4′-dihydro-1′H-spiro[piperidine-4,2′-quinoline]-1-carboxamide] | 67 nM | 53 nM |
| 47.2 nM | NC(=O)c1cc(CNC(=O)N2CCC3(CC2)CC(O)c2cc(F)ccc2N3)ccc1F (racemic) [Example 160, N-(3-carbamoyl-4-fluorobenzyl)-6′-fluoro-4′-hydroxy-3′,4′-dihydro-1′H-spiro[piperidine-4,2′-quinoline]-1-carboxamide] | 1 nM | 0.4 nM |
| 9.1 nM | CN1c2ccc(F)cc2[C@H](O)CC12CCN(C(=O)NCc1ccc(F)cc1)CC2 (single isomer, unassigned) [Example 151a] | 20 nM | 24 nM |
| 9.1 nM | O=C(NCc1ccc(F)cc1)N1CCC2(CC1)C[C@@H](O)c1cc(F)ccc1N2 (single isomer, unassigned) [Example 152] | 16 nM | 21 nM |
| > 10000 nM | O=C(NCc1ccc(F)cc1)N1CCC2(CC1)C[C@H](O)c1cc(F)ccc1N2 (single isomer, unassigned) [Example 153] | 2500 nM | 2260 nM |
| 11.7 nM | O=C(NCc1ccc(F)cc1O)N1CCC2(CC1)C[C@@H](O)c1cc(F)ccc1N2 (single isomer, unassigned) [Example 154a] | 5 nM | 5 nM |
